Entries after “also recorded” stand apart in the source; their conditions may differ.
Key:
[1] = test system: N2a mouse neuroblastoma cells that stably express Swedish-mutated APP; assay: Cell-based assay of secreted Aβ42, Aβ40, Aβ38 in APPsw-N2A cells; conditions: 24 hrs, in words, CS-1 up to 30 μM
Experimental: FIG. 3. Cellular evaluation of the coumarin-dimer CS-1 and its selective inhibition of Aβ42. Compounds were incubated with the APPsw-N2A mouse neuroblastoma cells for 24 hours and media were analyzed by biotinylated 4G8 and ruthenylated antibodies specific for each respective cleavage product. […] (d) Immunoprecipitation mass spectrometry analysis of CS-1 effect on secreted β-amyloid species. Aβ peptides were immunoprecipitated using 4G8 antibody and isolated with Protein G+/A agarose beads. Samples were analyzed by MALDI-MS. Samples shown are representative and each data point was performed in triplicate. (e) Cell-based Notch cleavage assay. HEK-293 cells were transfected with ΔE Notch construct and then Compound E and CS-1 were evaluated for their ability to inhibit γ-secretase-mediated Notch intracellular domain production. […] Western blot is representative and was performed in triplicate. (f) Effect of CS-1 on AICD production. N2A APPsw cell membrane was prepared and incubated with the indicated concentrations of CS-1 at 37° C. for 2 hours. The generated AICD and APP-CTFs were detected by Western Blotting using APPc antibody. Western blot is representative and was performed in triplicate.
We next set out to determine if the selective inhibition of Aβ42 was maintained in a cell-based system for APP processing. First, we compared our lead compound CS-1 (FIG. 3a) to Compound E (FIG. 3b) and the GSM compound indomethacin (FIG. 3c). N2a mouse neuroblastoma cells that stably express Swedish-mutated APP substrate were treated with the indicated compounds for 24 hrs at 37° C. Following 24 hr incubation period, the medium was collected from the cells and assayed for secreted Aβ42, Aβ40, and Aβ38. […] The result for indomethacin mirrored those findings by Kukar et al. whereby a different cell-based system was utilized (17), further validating our assay system for analysis of these Aβ species. […] This may reflect subtle variations between the cellular and in vitro conformations of γ-secretase. Nevertheless, the cell-based studies confirmed that CS-1 maintains a preference for inhibition of the γ-secretase mediated production of Aβ42 over Aβ40 or Aβ38, which is distinct to previously reported GSMs (17) and inhibitors (14-15, 18).
Cell membranes and solubilized γ-secretase were prepared as described previously (36). The in vitro and cell γ-secretase assays detecting either Aβ38, Aβ40, or Aβ42 cleavage were performed similar as previously described (21, 36). Cleaved product was detected using ruthenylated antibodies that recognize specific APP cleavage sites (Aβ31-38*, G2-10*, or G2-11* antibody for Aβ38, Aβ40, or Aβ42 respectively). The Km and Vmax in the presence and absence of γ-secretase inhibitors were analyzed by non-linear curve fit using the software SigmaPlot 8.0 with the Michaelis-Menten equation (v=Vm [S]/(Km+[S]; v: initial rate; Vm: maximum velocity; Km: the Michaelis-Menten constant, S: substrate).

[2] = test system: HEK-293 cells transfected with ΔE Notch construct; assay: Cell-based Notch cleavage assay (NICD production); conditions: HEK-293, ΔE Notch, 24 hrs; Western blot; CS-1 up to 30 μM
Experimental: FIG. 3. Cellular evaluation of the coumarin-dimer CS-1 and its selective inhibition of Aβ42. Compounds were incubated with the APPsw-N2A mouse neuroblastoma cells for 24 hours and media were analyzed by biotinylated 4G8 and ruthenylated antibodies specific for each respective cleavage product. […] (d) Immunoprecipitation mass spectrometry analysis of CS-1 effect on secreted β-amyloid species. Aβ peptides were immunoprecipitated using 4G8 antibody and isolated with Protein G+/A agarose beads. Samples were analyzed by MALDI-MS. Samples shown are representative and each data point was performed in triplicate. (e) Cell-based Notch cleavage assay. HEK-293 cells were transfected with ΔE Notch construct and then Compound E and CS-1 were evaluated for their ability to inhibit γ-secretase-mediated Notch intracellular domain production. […] The generated AICD and APP-CTFs were detected by Western Blotting using APPc antibody. […]
We next determined the ability of CS-1 to suppress cellular γ-secretase activity for Notch1 cleavage. […]
ΔE Notch or empty pcDNA3.1(−) construct was transfected into HEK-293 cells in a 6-well format using Lipofectamine reagent, following manufacturer's instructions. […] Samples were then centrifuged at 13,000 rpm's at 4° C. and the supernatent was collected and analyzed by Western analysis using either anti-Myc antibody at a 1:1000 dilution or anti-NICD-1 SM320 at a 1:500 dilution.

C[C@H](NC(=O)Cc1cc(F)cc(F)c1)C(=O)N[C@H]1N=C(c2ccccc2)c2ccccc2N(C)C1=O [Compound E]
effect on secreted Aβ38 production [1]: no inhibitory selectivity; also recorded: inhibited the production of all three β-amyloid species with equal potency | effect on secreted Aβ40 production [1]: no inhibitory selectivity; also recorded: inhibited the production of all three β-amyloid species with equal potency | effect on secreted Aβ42 production [1]: no inhibitory selectivity; also recorded: inhibited the production of all three β-amyloid species with equal potency | effect on Notch intracellular domain (NICD) production [2]: able to prevent production of NICD; also recorded: effectively blocked all production

Reference: patent US20150133493A1, “COUMARIN-BASED COMPOUNDS FOR THE TREATMENT OF ALZHEIMER'S DISEASE AND CANCER” (Sloan-Kettering Institute for Cancer Research, priority 2008, published 2015)
